Test results as given in patent US20140323457A1, “BETA-O/S/N FATTY ACID BASED COMPOUNDS AS ANTIBACTERIAL AND ANTIPROTOZOAL AGENTS” (LUDWIG-MAXIMILIANS-UNIVERSITÄT MÜNCHEN, priority 2011, published 2014).
Read-outs that look alike come from different tables or passages of the source. Blank lines part the entries; values can stand above or below the compound they belong to.

Legend:
[1] = stability in human plasma; assay type: in vitro ADME; details: SKH-1 and Balb/C (mouse plasma); positive control at 100 μM in every experiment (human and mouse plasma), 37° C.
Protocol: (§1) We investigated the stability of the compound herein in plasma preparations in comparison the beta-lactone compounds. Human plasma was obtained lyophilized from Sigma and reconstituted in sterile H2O. For human plasma 3.8% trisodium citrate was used as anticoagulant. Mouse plasma was prepared from whole blood samples from SKH-1 and Balb/C mice using Lithium-Heparin as anticoagulant and pooled from at least three different donor animals. Plasma samples were sterile filtered and stored in aliquots at −20° C. […] Test compounds were diluted 1:100 from a DMSO stock solution to a final concentration of 100 μM in both human and mouse plasma prewarmed for 10 min in an orbital shaker to 37° C. Test compounds were further incubated at 37° C. in the orbital shaker. Samples were withdrawn at time points 0, 5, 10, 20, 30, 60, 120, 240 min and immediately quenched by the addition of an equal volume of ice-cold acetonitrile. Subsequently, all samples were spun at maximum speed in a microcentrifuge to pellet precipitated proteins and samples were prepared for LC-MS analysis. Compound quantification occurred through analysis via the LTQ-FT high resolution mass-spectrometer and XCalibur-Software purchased at Thermo Scientific, Dreieich, D-63303 Germany.

CIpP = target: T1, CIpP (Staphylococcus aureus, UniProt Q2G036); assay: competitive ABPP proteome labeling of living S. aureus cells with U1P probe; assay type: binding; details: FIG. 4
T1 construct: Living S. aureus NCTC8325 cells from a fresh stationary liquid culture were aliquoted; endogenous in cells; host or cells: living S. aureus NCTC8325 cells
T1 sequence (Q2G036 1-195): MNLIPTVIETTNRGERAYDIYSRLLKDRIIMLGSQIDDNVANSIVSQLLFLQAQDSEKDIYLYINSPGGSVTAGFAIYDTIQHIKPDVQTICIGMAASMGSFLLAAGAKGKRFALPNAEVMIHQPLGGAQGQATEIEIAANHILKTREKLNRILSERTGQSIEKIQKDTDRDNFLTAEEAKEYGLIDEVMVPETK
Excerpt: The compound U1P was used as a probe for activity-based labeling (activity-based protein profiling, ABPP) of the S. aureus NCTC 8325 proteome, as described in WO 2009/106211.
The U1P ABPP probe represents the lead structures of the known beta-lactone CIpP inhibitors modified with a terminal alkyne group. This compound is both active in hemolysis inhibition and CIpP inhibition. The terminal alkyne group comprised in UIP can be used for appending a fluorophore such as rhodamine-azide using click chemistry (1,3-dipolar Huisgen cycloaddition), which allows to scan the proteome of S. aureus for possible covalent binding partners. This compound consistently labels CIpP protease in a covalent manner in S. aureus proteomes.
The inventors used this compound in order to investigate whether compounds according to the present invention are able to reduce or suppress by non-covalent binding the covalent binding of the U1P ABPP probe to proteins of the S. aureus proteome. For a detailed description of the technique underlying these experiments see T. Böttcher, M. Pitscheider S. A. Sieber, Angew Chem Int Ed Engl. 2010, 2680.
Living S. aureus NCTC8325 cells from a fresh stationary liquid culture were aliquoted to equivalents of 1 ml of OD600=2. Bacterial cells were washed and resuspended in 100 μl PBS. Bacterial cell aliquots were then pre-incubated with the compounds AVU1AA or VK273 of the invention for 1 h at RT at final concentrations of 5 or 10 mM. Subsequently, the covalent ABPP probe UIP was added to a final concentration of 100 μM for 30 min at RT. After the competitive labeling procedure bacterial cells were washed twice, disrupted and labeled with rhodamine-azide using click chemistry. The labeled S. aureus proteome samples were separated by SDS-PAGE and visualized using fluorescence scanning.

[2] = target: T2, CIpP protease from S. aureus NCTC8325 (SaCIpP) (Staphylococcus aureus, UniProt Q2G036); assay: in vitro inhibition of recombinant S. aureus CIpP with SLY-AMC substrate; assay type: biochemical; details: inhibitor 2 mM (1000×), 30 min RT; SLY-AMC 200 μM; FIG. 3
T2 construct: made in house; host or cells: E. coli
T2 sequence (Q2G036 1-195): T1 sequence (Q2G036 1-195)
Protocol: The CIpP protease from S. aureus NCTC8325 (SaCIpP) was recombinantly overexpressed in E. coli and purified in order to investigate enzyme inhibition using SLY-AMC (N-succinyl-Leu-Tyr-7-amido-4-methylcoumarin) as fluorogenic model substrate.
Precisely, 9 μl of SaCIpP in buffered solution (final concentration 0.05 mg/ml, 2 μM; buffer: 100 mM NaCl, 20 mM Tris, pH 7.0) were incubated in the presence of 1 μl of various inhibitors (final concentration 2 mM=1000×) for 30 min at room temperature (RT). Subsequently, SLY-AMC was added to a final concentration of 200 μM and the increase in fluorescence due to enzymatic substrate proteolysis was measured using a TECAN GENios Pro™ plate reader at 380/440 nm (excitation/emission) at time intervals of 60 s over 40 min at 37° C. The enzymatic activity was determined as the slope of fluorescence (2=440 nm) over time. As positive controls, the in vivo active beta-lactone compound AVU1 (“U1”; WO 2009/106211) and the in vitro potent CIpP beta-lactone inhibitor D3 (WO 2009/106211) were employed.

[3] = test system: S. aureus strain NCTC 8325; assay: minimal inhibiting concentration (MIC) in liquid bacterial culture; assay type: cell-based; details: overnight 37° C., read-out: MIC
Protocol: (§2) 1 ml of an appropriate bacterial broth for the standard laboratory S. aureus strain NCTC 8325 were inoculated with 1*10^6 cfu. The cultures were kept overnight at 37° C. with gentle shaking 300 rpm in the presence of compounds AVU1Acid, AVU1AAc, AVU1AA or VK273 according to the present invention at different concentrations or dimethyl sulfoxide (DMSO) as control. Different beta-lactone virulence inhibitors were used as reference compounds. Following overnight incubation the optical density was measured in order to determine the minimal inhibiting concentration (MIC), which is defined as the lowest concentration of an antimicrobial that will inhibit the visible growth of a microorganism after overnight incubation. A 100 μl fraction of the supernatant of the grown bacterial cultures was subsequently analysed for the content of secreted bacterial hemolysins by addition of sheep red blood cells (10% v/v in PBS) and the measurement of the optical density at 410 nm after 30 min incubation at 37° C.

[4] = test system: S. aureus strain NCTC 8325; assay: liquid culture-based hemolysis assay (secreted hemolysins, sheep red blood cells); assay type: cell-based
Protocol: The inhibition of hemolysin production has thus been further analysed in liquid bacterial cultures in order to evaluate their potential effects on bacterial growth simultaneously. Besides AVU1Acid, AVU1AAc, AVU1AA and VK273 the following further compounds were tested in liquid bacterial cultures:
as §2
The following results were obtained in further liquid culture-based hemolysis assays. Since the assays were performed at different times with different charges of sheep red blood cells AVU1 has been tested as a reference substance in each assay. The resulting EC50 values determined for the tested compounds have to be assessed with respect to the EC50 value determined for AVU1.

[5] = stability in mouse plasma; assay type: in vitro ADME; details: 100 μM, 37° C., 0-240 min; FIG. 8, FIG. 10
Protocol: as §1

half-life at 100 μM [1]: 6 to 9 min
Structure (SMILES): CCN(CC)CCOC(=O)c1ccc(N)cc1 [Procaine]

Structure (SMILES): C=CCCCCCCCC(CO)C(O)CCc1ccccc1 (stereo not shown) [VK273, 2-(non-8-enyl)-5-phenylpentandiol-1,3]
labeling in the absence of U1P (CIpP; bacterial cells incubated with compound alone): did not result in any unspecific labeling | target binding of U1P after pre-incubation with competitor (CIpP; pre-incubation 1 h at RT at 5 or 10 mM, U1P 100 μM 30 min): significantly reduced target binding of U1P | inhibition of SaCIpP [2]: inhibit SaCIpP at an at least comparable level as the in vivo active beta-lactone reference compound AVU1 | MIC ([3]; Assay 1): >1000 µM | EC50 ([4]; Assay 1, hemolysin production): 24.8 µM

Structure (SMILES): C=CCCCCCCC[C@H]1C(=O)O[C@@H]1CCc1ccccc1 [AVU1, reference compound]
stability in mouse plasma [5]: degraded within a few minutes | MIC ([3]; Assay 2): >1000 µM | MIC ([3]; Assay 3): >1000 µM | MIC ([3]; Assay 4): >1000 µM | MIC ([3]; Staphylococcus aureus, NCTC8325, Assay 1): > 1000 µM | EC50 ([4]; Staphylococcus aureus, NCTC8325, Erythrocyte, Assay 1, hemolysin production): 142 µM | EC50 ([4]; Staphylococcus aureus, NCTC8325, Erythrocyte, Assay 2, hemolysin production, assess relative to AVU1): 10 to 50 µM | EC50 ([4]; Staphylococcus aureus, NCTC8325, Erythrocyte, Assay 3, hemolysin production, assess relative to AVU1): 50 to 100 µM | EC50 ([4]; Staphylococcus aureus, NCTC8325, Erythrocyte, Assay 4, hemolysin production, assess relative to AVU1): 31 µM

Structure (SMILES): C#CC[C@H]1C(=O)O[C@@H]1CCc1ccccc1 [U1P, reference compound]
labeling signal of probe (CIpP; in the absence of competitive compounds): strong labeling signal with CIpP as the main target
